Laboratory results published in the supplement of paper PMC5579334.

Columns and labels:
YST-1 [1] = experiment: drug sensitivity score (DSS, CellTiter-Glo viability, 72 h) (DSS (dimensionless)); higher = more sensitive; extreme values may be limits of the assay
How it was run: (§1)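 For this screen, 384-well plates were preprinted with each compound at five concentrations in 10-fold steps and seeded with MPNST cell lines or primary human Schwann cells at 750–1000 cells per well. Incubation lasted 72 h at 37 °C, 5% CO2, and CellTiter-Glo ATP luminescence, scaled between vehicle and positive-control wells and averaged over duplicates where available, served as viability. Logistic fits with four parameters were applied. Relative IC50 (censored at the top concentration) and drug sensitivity score derive from these fits, and percent inhibition is at the top concentration.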

HS-Sch-2 [2] = experiment: as above
How it was run: as §1

HS-PSS [3] = experiment: as above
How it was run: as §1

HS-PSS [4] = experiment: drug sensitivity score (DSS, CellTox-Green cytotoxicity, 72 h) (DSS (dimensionless)); higher = more cytotoxic; extreme values may be limits of the assay
How it was run: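 MPNST cell lines and primary human Schwann cells were grown for 72 h at 37 °C in 384-well plates containing five 10-fold compound dilutions. CellTox-Green, added before seeding at a final 1:1000 dilution, gave fluorescence from DNA released by disrupted cells, and signals were scaled to vehicle and positive-control wells. Curves were fitted with a four-parameter logistic model. Drug sensitivity score and relative IC50 come from these fits, with IC50 censored at the top concentration.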

YST-1 [5] = experiment: % inhibition of CellTiter-Glo viability at highest tested concentration (72 h), relative to DMSO and benzethonium chloride controls; higher = more inhibition
How it was run: as §1

HS-Sch-2 [6] = experiment: as above
How it was run: as §1

HS-PSS [7] = experiment: as above
How it was run: as §1

CCc1cc2c(cc1N1CCC(N3CCOCC3)CC1)C(C)(C)c1[nH]c3cc(C#N)ccc3c1C2=O [Alectinib] (max concentration tested 1000 nM)
drug sensitivity score (YST-1 [1]): 0.28 | drug sensitivity score (HS-Sch-2 [2]): 0 | drug sensitivity score (HS-PSS [3]): 7.01 | drug sensitivity score (HS-PSS [4]): 0 | % inhibition (YST-1 [5]): 17.5% | % inhibition (HS-Sch-2 [6]): 2.24% | % inhibition (HS-PSS [7]): 42.8%

O=C(Nc1cccc(Nc2ncc(Br)c(NCCc3cnc[nH]3)n2)c1)N1CCCC1 [BX-912] (max concentration tested 10000 nM)
drug sensitivity score (YST-1 [1]): 8.47 | drug sensitivity score (HS-Sch-2 [2]): 4.94 | drug sensitivity score (HS-PSS [3]): 3.51 | drug sensitivity score (HS-PSS [4]): 0 | % inhibition (YST-1 [5]): 67% | % inhibition (HS-Sch-2 [6]): 78.4% | % inhibition (HS-PSS [7]): 44.8%

O=c1cc(N2CCOCC2)oc2c(-c3ccccc3)cccc12 (max concentration tested 100000 nM)
drug sensitivity score (YST-1 [1]): 12 | drug sensitivity score (HS-Sch-2 [2]): 7.3 | drug sensitivity score (HS-PSS [3]): 7.1 | drug sensitivity score (HS-PSS [4]): 2.67 | % inhibition (YST-1 [5]): 96.1% | % inhibition (HS-Sch-2 [6]): 72.3% | % inhibition (HS-PSS [7]): 69.6%

CCc1nc(-c2cccc(C)c2)c(-c2ccnc(NC(=O)c3ccccc3)c2)s1 [TAK-715] (max concentration tested 10000 nM)
drug sensitivity score (YST-1 [1]): 2.91 | drug sensitivity score (HS-Sch-2 [2]): 2.55 | drug sensitivity score (HS-PSS [3]): 0.81 | drug sensitivity score (HS-PSS [4]): 0 | % inhibition (YST-1 [5]): 24% | % inhibition (HS-Sch-2 [6]): 27.9% | % inhibition (HS-PSS [7]): 19.3%

Cc1cc2c(C(=O)NC[C@H](C)c3ccccc3)c(O)c(O)cc2c(O)c1-c1c(C)cc2c(C(=O)NC[C@H](C)c3ccccc3)c(O)c(O)cc2c1O [Sabutoclax] (max concentration tested 25000 nM)
drug sensitivity score (YST-1 [1]): 17.3 | drug sensitivity score (HS-Sch-2 [2]): 19.6 | drug sensitivity score (HS-PSS [3]): 4.91 | drug sensitivity score (HS-PSS [4]): 0 | % inhibition (YST-1 [5]): 89.2% | % inhibition (HS-Sch-2 [6]): 99.7% | % inhibition (HS-PSS [7]): 96.5%

Cn1ncc(Cl)c1-c1cc(C(=O)N[C@H](CN)Cc2cccc(F)c2)sc1Cl [Afuresertib] (max concentration tested 1000 nM)
drug sensitivity score (YST-1 [1]): 1.39 | drug sensitivity score (HS-Sch-2 [2]): 0 | drug sensitivity score (HS-PSS [3]): 0.07 | drug sensitivity score (HS-PSS [4]): 0 | % inhibition (YST-1 [5]): 32% | % inhibition (HS-Sch-2 [6]): 1.85% | % inhibition (HS-PSS [7]): 13.3%

CC(C)[C@@H](CS(=O)(=O)C(C)C)N1C(=O)[C@@](C)(CC(=O)O)C[C@H](c2cccc(Cl)c2)[C@H]1c1ccc(Cl)cc1 [AMG-232] (max concentration tested 1000 nM)
drug sensitivity score (YST-1 [1]): 8.01 | drug sensitivity score (HS-Sch-2 [2]): 0 | drug sensitivity score (HS-PSS [3]): 0.61 | drug sensitivity score (HS-PSS [4]): 0 | % inhibition (YST-1 [5]): 96.6% | % inhibition (HS-Sch-2 [6]): -6.16% | % inhibition (HS-PSS [7]): 22.4%

O=c1sn(-c2cccc3ccccc23)c(=O)n1Cc1ccccc1 [Tideglusib] (max concentration tested 3000 nM)
drug sensitivity score (YST-1 [1]): 0 | drug sensitivity score (HS-Sch-2 [2]): 0 | drug sensitivity score (HS-PSS [3]): 0 | drug sensitivity score (HS-PSS [4]): 0 | % inhibition (YST-1 [5]): 3.93% | % inhibition (HS-Sch-2 [6]): 2.01% | % inhibition (HS-PSS [7]): 6.62%

CCN(CC)C(=S)SSC(=S)N(CC)CC [Disulfiram] (max concentration tested 100000 nM)
drug sensitivity score (YST-1 [1]): 30.7 | drug sensitivity score (HS-Sch-2 [2]): 27 | drug sensitivity score (HS-PSS [3]): 30.6 | drug sensitivity score (HS-PSS [4]): 8.67 | % inhibition (YST-1 [5]): 101% | % inhibition (HS-Sch-2 [6]): 101% | % inhibition (HS-PSS [7]): 101%

COc1ccc(-c2ccc3ncc4c(c3c2)n(-c2ccc(N3CCNCC3)c(C(F)(F)F)c2)c(=O)n4C)cn1 [NVP-BGT226] (max concentration tested 1000 nM)
drug sensitivity score (YST-1 [1]): 19.7 | drug sensitivity score (HS-Sch-2 [2]): 21.4 | drug sensitivity score (HS-PSS [3]): 15.3 | drug sensitivity score (HS-PSS [4]): 3.94 | % inhibition (YST-1 [5]): 99.5% | % inhibition (HS-Sch-2 [6]): 98.2% | % inhibition (HS-PSS [7]): 99.1%

CN(CC(=O)N(Cc1ccc(C2CCCCC2)cc1)c1ccc(C(=O)O)cc1)S(=O)(=O)c1c(F)c(F)c(F)c(F)c1F [SH-4-54] (max concentration tested 25000 nM)
drug sensitivity score (YST-1 [1]): 10.3 | drug sensitivity score (HS-Sch-2 [2]): 7.18 | drug sensitivity score (HS-PSS [3]): 5.78 | drug sensitivity score (HS-PSS [4]): 3.21 | % inhibition (YST-1 [5]): 100% | % inhibition (HS-Sch-2 [6]): 93% | % inhibition (HS-PSS [7]): 98.7%

CC(C)(C)C[C@@H]1N[C@@H](C(=O)N[C@H]2CC[C@H](O)CC2)[C@H](c2cccc(Cl)c2F)[C@]12C(=O)Nc1cc(Cl)ccc12 (max concentration tested 10000 nM)
drug sensitivity score (YST-1 [1]): 21.9 | drug sensitivity score (HS-Sch-2 [2]): 0.86 | drug sensitivity score (HS-PSS [3]): 1.67 | drug sensitivity score (HS-PSS [4]): 0 | % inhibition (YST-1 [5]): 100% | % inhibition (HS-Sch-2 [6]): 19.6% | % inhibition (HS-PSS [7]): 36.2%

CCc1c2c(nc3ccc(O)cc13)-c1cc3c(c(=O)n1C2)COC(=O)[C@]3(O)CC [SN-38] (max concentration tested 10000 nM)
drug sensitivity score (YST-1 [1]): 36.9 | drug sensitivity score (HS-Sch-2 [2]): 36.1 | drug sensitivity score (HS-PSS [3]): 22.9 | drug sensitivity score (HS-PSS [4]): 20.4 | % inhibition (YST-1 [5]): 99.7% | % inhibition (HS-Sch-2 [6]): 100% | % inhibition (HS-PSS [7]): 77.9%

Nc1cc(F)ccc1NC(=O)/C=C/c1cnn(C/C=C/c2ccccc2)c1 [RGFP966] (max concentration tested 10000 nM)
drug sensitivity score (YST-1 [1]): 5.15 | drug sensitivity score (HS-Sch-2 [2]): 4.52 | drug sensitivity score (HS-PSS [3]): 4.21 | drug sensitivity score (HS-PSS [4]): 0 | % inhibition (YST-1 [5]): 55.7% | % inhibition (HS-Sch-2 [6]): 52.7% | % inhibition (HS-PSS [7]): 33.2%

CN(C)C(=O)c1ccc(S(=O)(=O)c2ccc(NC(=O)[C@@](C)(O)C(F)(F)F)c(Cl)c2)cc1 [AZD7545] (max concentration tested 10000 nM)
drug sensitivity score (YST-1 [1]): 0 | drug sensitivity score (HS-Sch-2 [2]): 0.76 | drug sensitivity score (HS-PSS [3]): 2.45 | drug sensitivity score (HS-PSS [4]): 0 | % inhibition (YST-1 [5]): 2.29% | % inhibition (HS-Sch-2 [6]): 17.4% | % inhibition (HS-PSS [7]): 57%

O=c1[nH]c(C2CCCN2)nc2c1oc1ccc(Cl)cc12 (centres undefined) (max concentration tested 10000 nM)
drug sensitivity score (YST-1 [1]): 6.83 | drug sensitivity score (HS-Sch-2 [2]): 2.7 | drug sensitivity score (HS-PSS [3]): 2.86 | drug sensitivity score (HS-PSS [4]): 0 | % inhibition (YST-1 [5]): 63.8% | % inhibition (HS-Sch-2 [6]): 19.3% | % inhibition (HS-PSS [7]): 33.3%

O[C@H]1CC[C@H](Nc2ncc3nc(Nc4c(F)cc(F)cc4F)n([C@H]4CCOC4)c3n2)CC1 [Tanzisertib] (max concentration tested 10000 nM)
drug sensitivity score (YST-1 [1]): 1.56 | drug sensitivity score (HS-Sch-2 [2]): 0 | drug sensitivity score (HS-PSS [3]): 0 | drug sensitivity score (HS-PSS [4]): 0 | % inhibition (YST-1 [5]): 11.6% | % inhibition (HS-Sch-2 [6]): -2.81% | % inhibition (HS-PSS [7]): -0.16%
